Structures can show the parent of a compound that is named as a salt. Where two headings read alike, the source gives them in different places.
How the values were obtained:
Type in all cases: cell-based
[1] = Compound cytotoxicity in absence of virus (CellTiter-Glo); details: human
Experimental: (§1) Compounds were profiled against two HIV-1 viruses, the M-tropic (CCR5 utilizing) Ba-L strain and the T-tropic (CXCR4 utilizing) IIIB strain. Both viruses were propagated in human peripheral blood lymphocytes. Compounds were tested for there ability to block infection of the HOS cell line (expressing hCXCR4/hCCR5/hCD4/pHIV-LTR-luciferase) by either HIV-1 Ba-L or HIV-1, IIIB. Compound cytotoxicity was also examined in the absence of virus addition.
(§2) HOS cells (expressing hCXCR4/hCCR5/hCD4/pHIV-LTR-luciferase) were harvested and diluted in Dulbeccos modified Eagles media supplemented with 2% FCS and non-essential amino acid to a concentration of 60,000 cells/ml. The cells were plated into 96-well plates (100 ul per well) and the plates were placed in a tissue culture incubator (37° C.; 5% CO2/95% air) for a period of 24 h.
(§3) Subsequently, 50 ul of the desired drug solution (4 times the final concentration) was added to each well and the plates were returned to the tissue culture incubator (37° C.; 5% CO2/95% air) for 1 h. Following this incubation 50 ul of diluted virus was added to each well (approximately 2 million RLU per well of virus). The plates were returned to the tissue culture incubator (37° C.; 5% CO2/95% air) and were incubated for a further 96 h.
(§4) Following this incubation the endpoint for the virally infected cultures was quantified following addition of Steady-Glo Luciferase assay system reagent (Promega, Madison, Wis.). Cell viability or non-infected cultures was measured using a CellTiter-Glo luminescent cell viability assay system (Promega, Madison, Wis.). All luminescent readouts are performed on a Topcount luminescence detector (Packard, Meridien, Conn.).
as §1, with “Ba-L was” for “Both viruses were”, “either peripheral blood lymphocytes or SupT1/CCR5+/CXCR4+ cells. IIIB was propagated in” for “human”, “their” for “there”
as §2, with “FCS” for “FCS and non-essential amino acid”, “120,000” for “60,000”, “(50 μl” for “(100 ul”, “(370°” for “(37°”
(§5) Subsequently, 50 μl of the desired drug solution (2 times the final concentration) was added to each well and the plates were returned to the tissue culture incubator (370° C.; 5% CO2/95% air) for 1 h. Following this incubation, 60 μl of diluted virus (4 times the final concentration) was added to 60 μl of 2× the final desired concentration of the compound and 100 μl of this compound/virus mix was added to each well (approximately 2 million RLU per well of virus). The plates were returned to the tissue culture incubator (370° C.; 5% CO2/95% air) and were incubated for a further 96 h.

human CXCR4 = biological target: T1, human CXCR4 (Homo sapiens, UniProt P61073); test: Functional FLIPR assay (block of SDF-1 alpha calcium response); details: HEK-293 cells with human CXCR4 and Gqi5 BacMam; antagonism of SDF-1 alpha [Ca2+]i change; read-out: Functional assay (pIC50) (converted)
T1 construct: expressed in transfected cells; host or cells: HEK-293 cells (stably expressing human macrophage scavenging receptor) transduced with human CXCR4 BacMam and Gqi5 BacMam baculovirus
Experimental: Human embryonic kidney (HEK-293) cells were maintained and harvested as described above. Cells were plated in 96-well, black clear bottom, poly-lysine coated plates at a concentration of 40,000 cells per well in a final volume of 100 ul containing human CXCR4BacMam (MOI=25) and Gqi5 BacMam (MOI=12.5). The cells were incubated at 37° C., 5% CO2, 95% humidity for 24 h to allow for protein expression.
After the required incubation time the cells were washed once with 50 ul of fresh serum-free DMEM/F12 media containing probenicid. 50 ul of dye solution was then added to the cells (Calcium Plus Assay Kit Dye; Molecular Devices) was dissolved in 200 ml of the above probenicid/BSA containing media and incubated for 1 h. Cell plates were transferred to a Fluorometric Imaging Plate Reader (FLIPR). Upon addition the effect of the compounds on the change in [Ca^2+]i was examined to determine if the compounds were agonists or antagonists (ability to block SDF-1 alpha activity) at the CXCR4 receptor. IC50 values are determined and pKb values are calculated using the Leff and Dougall equation: KB=IC50/((2+([agonist]/EC50̂b) ̂1/b−1) Where IC50 is that defined by the antagonist concentration-response curve [agonist] is the EC80 concentration of agonist used EC50 is that defined by the agonist concentration-response curve b is the slope of the agonist concentration-response curve.

HIV-1 IIIB = test: HOS HIV-1 infectivity assay, IIIB strain; details: 96 h
Experimental: as §1, §2, §3, §4
as §1, with “Ba-L was” for “Both viruses were”, “either peripheral blood lymphocytes or SupT1/CCR5+/CXCR4+ cells. IIIB was propagated in” for “human”, “their” for “there”
as §2, with “FCS” for “FCS and non-essential amino acid”, “120,000” for “60,000”, “(50 μl” for “(100 ul”, “(370°” for “(37°”
as §5

[2] = Human immunodeficiency virus 1, IIIB, HOS, read-out: HOS (3B) (μM)
[3] = HOS cells, no virus added, cell viability, read-out: Cytotox (pIC50) (converted)
[4] = Human immunodeficiency virus 1, T-tropic (CXCR4 utilizing) IIIB strain, HOS cells, luciferase, read-out: HOS (3B)

T1 sequence (P61073 whole entry): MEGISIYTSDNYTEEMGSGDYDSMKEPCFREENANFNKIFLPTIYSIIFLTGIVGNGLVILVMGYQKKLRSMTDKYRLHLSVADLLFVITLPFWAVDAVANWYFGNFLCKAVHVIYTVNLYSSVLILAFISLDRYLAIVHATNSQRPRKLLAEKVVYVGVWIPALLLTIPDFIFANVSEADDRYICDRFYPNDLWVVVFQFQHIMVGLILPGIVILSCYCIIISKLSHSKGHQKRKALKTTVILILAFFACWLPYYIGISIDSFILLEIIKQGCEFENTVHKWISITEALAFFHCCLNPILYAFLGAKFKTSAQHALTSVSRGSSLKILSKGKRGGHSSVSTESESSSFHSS

Row | Structure (SMILES) | IC50 at 96 h [1] [nM] | IC50 (human CXCR4) [nM] | IC50 (HIV-1 IIIB; [2]) [µM] | IC50 at 96 h [1, 3] [nM] | IC50 (HIV-1 IIIB; [4]) [µM]
1 | c1cnc2c(c1)CC[C@H]1CCCN(Cc3nc4ccccc4[nH]3)[C@H]21 (racemic) [Example 6, (trans)-1-(1H-Benzimidazol-2-ylmethyl)-1,2,3,4,4a,5,6,10b-octahydro-1,10-phenanthroline] | 31600 | 126 | 0.47 |  | 
2 | c1cnc2c(c1)CC[C@@H]1CCCN(Cc3nc4ccccc4[nH]3)[C@H]21 (racemic) [Example 7, (cis)-1-(1H-Benzimidazol-2-ylmethyl)-1,2,3,4,4a,5,6,10b-octahydro-1,10-phenanthroline] | > 100000 | 437 | 1 |  | 
3 | NCCCn1c(CN2CCC[C@@H]3CCc4cccnc4[C@H]32)nc2ccccc21 (racemic) [Example 8, (trans)-3-[2-(3,4,4a,5,6,10b-Hexahydro-1,10-phenanthrolin-1(2H)-ylmethyl)-1H-benzimidazol-1-yl]-1-propanamine] |  | 126 |  | > 100000 | 0.22
4 | NCCCn1c(CN2CCC[C@H]3CCc4cccnc4[C@H]32)nc2ccccc21 (racemic) [Example 9, (cis)-3-[2-(3,4,4a,5,6,10b-Hexahydro-1,10-phenanthrolin-1(2H)-ylmethyl)-1H-benzimidazol-1-yl]-1-propanamine] |  | 19.5 |  | 28800 | 0.073
5 | c1cnc2c(c1)CC[C@@H]1CCCN(Cc3nc4ccccc4n3Cc3ccncc3)[C@H]21 (racemic) [Example 12, (cis)-1-{[1-(4-Pyridinylmethyl)-1H-benzimidazol-2-yl]methyl}-1,2,3,4,4a,5,6,10b-octahydro-1,10-phenanthroline] |  | 1050 |  | > 100000 | 0.77
6 | CN1CCCC(Cn2c(CN3CCC[C@H]4CCc5cccnc5[C@H]43)nc3ccccc32)C1 (mixture of isomers) [Example 13, (cis)-1-({1-[(1-Methyl-3-piperidinyl)methyl]-1H-benzimidazol-2-yl}methyl)-1,2,3,4,4a,5,6,10b-octahydro-1,10-phenanthroline] |  | 7.59 |  | > 100000 | 0.05
7 | CN1CCN(c2cccc3nc(CN4CCC[C@@H]5CCc6cccnc6[C@H]54)cn23)CC1 (racemic) [Example 15A, (trans)-1-{[5-(4-Methyl-1-piperazinyl)imidazo[1,2-a]pyridin-2-yl]methyl}-1,2,3,4,4a,5,6,10b-octahydro-1,10-phenanthroline] |  | 40.7 |  | > 100000 | 0.033
8 | CN1CCN(c2cccc3nc(CN4CCC[C@H]5CCc6cccnc6[C@H]54)cn23)CC1 (racemic) [Example 15B, (cis)-1-{[5-(4-Methyl-1-piperazinyl)imidazo[1,2-a]pyridin-2-yl]methyl}-1,2,3,4,4a,5,6,10b-octahydro-1,10-phenanthroline] |  | 3.39 |  | > 100000 | 0.004
9 | CN1CCN(c2cccc3[nH]c(CN4CCC[C@@H]5CCc6cccnc6[C@H]54)nc23)CC1 (racemic) [Example 32, (trans)-1-{[4-(4-Methyl-1-piperazinyl)-1H-benzimidazol-2-yl]methyl}-1,2,3,4,4a,5,6,10b-octahydro-1,10-phenanthroline trifluoroacetate] |  | 479 |  | > 10000 | 0.26
10 | CN1CCN(c2cccc3nc(CN4CCC[C@H]5CCc6cccnc6[C@H]54)[nH]c23)CC1 (racemic) [Example 33, (cis)-1-{[4-(4-Methyl-1-piperazinyl)-1H-benzimidazol-2-yl]methyl}-1,2,3,4,4a,5,6,10b-octahydro-1,10-phenanthroline] |  | 2.4 |  | 37200 | 0.0035
11 | CN(C)CCCn1c(CN2CCC[C@H]3CCc4cccnc4[C@@H]32)nc2ccccc21 (stereo in doubt) [Example 10A, (3-{2-[(4aR,10bR)-3,4,4a,5,6,10b-Hexahydro-1,10-phenanthrolin-1(2H)-ylmethyl]-1H-benzimidazol-1-yl}propyl)dimethylamine] |  | 182 |  | > 100000 | 0.33
12 | CN(C)CCCn1c(CN2CCC[C@@H]3CCc4cccnc4[C@H]32)nc2ccccc21 (stereo in doubt) [Example 10B, (3-{2-[(4aS,10bS)-3,4,4a,5,6,10b-Hexahydro-1,10-phenanthrolin-1(2H)-ylmethyl]-1H-benzimidazol-1-yl}propyl)dimethylamine] |  | 93.3 |  | > 100000 | 0.14
13 | CN(C)CCCn1c(CN2CCC[C@@H]3CCc4cccnc4[C@@H]32)nc2ccccc21 [Example 11A, (3-{2-[(4aS,10bR)-3,4,4a,5,6,10b-Hexahydro-1,10-phenanthrolin-1(2H)-ylmethyl]-1H-benzimidazol-1-yl}propyl)dimethylamine] |  | 851 |  | > 100000 | 0.53
14 | CN(C)CCCn1c(CN2CCC[C@H]3CCc4cccnc4[C@H]32)nc2ccccc21 [Example 11B, (3-{2-[(4aR,10bS)-3,4,4a,5,6,10b-Hexahydro-1,10-phenanthrolin-1(2H)-ylmethyl]-1H-benzimidazol-1-yl}propyl)dimethylamine] |  | 10.5 |  | > 100000 | 0.035
15 | CN1CCN(c2cccc3nc(CN4CCC[C@@H]5CCc6cccnc6[C@@H]54)cn23)CC1 [Example 22, (4aS,10bR)-1-{[5-(4-Methyl-1-piperazinyl)imidazo[1,2-a]pyridin-2-yl]methyl}-1,2,3,4,4a,5,6,10b-octahydro-1,10-phenanthroline] |  | 31.6 |  | > 100000 | 0.1
16 | CN1CCN(c2cccc3nc(CN4CCC[C@H]5CCc6cccnc6[C@H]54)cn23)CC1 [Example 27, (4aR,10bS)-1-{[5-(4-Methyl-1-piperazinyl)imidazo[1,2-a]pyridin-2-yl]methyl}-1,2,3,4,4a,5,6,10b-octahydro-1,10-phenanthroline] |  | 1.26 |  | > 10000 | 0.004

Reference: patent US20090093454A1, “Chemical Compounds” (priority 2005, published 2009)
